Experimental data taken from ChEMBL document CHEMBL1201862, “PubChem BioAssay data set” (2004).
Calls of active or inactive are those of the source.

Experiments:
[1] = viability of PTEN-deleted HCT116 cells – cell-based, HCT116 PTEN knockout, dose response (AID 1047); type: functional;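 further: HCT116 colon tumor cells with PTEN knocked out; cells exposed to compound for 60 hours before readout; potency for loss of cell viability measured by luminescence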
[2] = molecular target: T1, Polyadenylate-binding protein 1 (Homo sapiens, UniProt P11940); experiment: MLLE binding blockers, Cy5 peptide tracer – biochemical, fluorescence polarization, Cy5-PAM2 peptide, secondary, miRNA deadenylation inhibitor project, dose response (AID 602260); type: functional; conditions: read-out: IC50_Mean
T1 sequence (P11940 whole entry, the tested form may be a part): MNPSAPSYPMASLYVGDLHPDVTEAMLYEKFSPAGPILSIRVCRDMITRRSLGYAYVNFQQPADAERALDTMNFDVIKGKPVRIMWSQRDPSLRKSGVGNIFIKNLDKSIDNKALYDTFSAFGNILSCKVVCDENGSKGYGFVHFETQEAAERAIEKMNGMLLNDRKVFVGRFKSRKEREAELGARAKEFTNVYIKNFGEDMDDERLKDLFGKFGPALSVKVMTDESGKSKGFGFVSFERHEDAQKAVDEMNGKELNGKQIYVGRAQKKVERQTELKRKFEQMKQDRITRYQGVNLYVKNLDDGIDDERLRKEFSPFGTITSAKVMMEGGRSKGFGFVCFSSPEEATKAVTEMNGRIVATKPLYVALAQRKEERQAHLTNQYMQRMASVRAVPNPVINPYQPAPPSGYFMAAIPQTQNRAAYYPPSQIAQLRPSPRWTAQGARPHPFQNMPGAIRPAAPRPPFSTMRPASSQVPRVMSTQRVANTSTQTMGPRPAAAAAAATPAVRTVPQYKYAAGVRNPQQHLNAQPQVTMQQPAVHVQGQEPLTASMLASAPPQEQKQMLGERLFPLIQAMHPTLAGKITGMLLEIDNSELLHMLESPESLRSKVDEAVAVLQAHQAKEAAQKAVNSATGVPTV

[3] = molecular target: T1, Polyadenylate-binding protein 1; experiment: MLLE domain peptide-binding blockers, IC50 – biochemical, fluorescence polarization, FITC-PAM2 peptide, dose response (AID 602259); type: functional; conditions: read-out: IC50_Mean
[4] = viability of HCT116 lacking mutant beta-catenin – cell-based, human colon tumor, dose response (AID 1045); type: functional;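 further: HCT116 colon tumor cells with beta catenin knocked out; cells exposed to compound for 60 hours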
[5] = molecular target: T2, Mannose-6-phosphate isomerase (Homo sapiens, UniProt P34949); experiment: MPI inhibition at elevated mannose 6-phosphate – biochemical, fluorescence intensity, high mannose 6-phosphate, primary screen (AID 1220)
T2 sequence (P34949 whole entry): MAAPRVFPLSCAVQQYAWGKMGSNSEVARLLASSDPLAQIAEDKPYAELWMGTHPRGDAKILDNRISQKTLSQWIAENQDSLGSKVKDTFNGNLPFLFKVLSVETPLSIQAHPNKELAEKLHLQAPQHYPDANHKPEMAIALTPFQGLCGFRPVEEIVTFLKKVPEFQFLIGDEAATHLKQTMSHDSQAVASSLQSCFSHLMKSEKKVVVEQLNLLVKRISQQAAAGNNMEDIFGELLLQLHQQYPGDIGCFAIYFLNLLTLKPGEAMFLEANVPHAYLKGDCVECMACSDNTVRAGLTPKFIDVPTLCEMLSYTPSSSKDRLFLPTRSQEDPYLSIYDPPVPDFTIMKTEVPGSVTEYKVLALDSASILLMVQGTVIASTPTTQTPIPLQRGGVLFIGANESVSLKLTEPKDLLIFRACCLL

[6] = Trypanosoma cruzi growth suppression in host cells – NIH3T3 host cells, beta-gal luminescence, confirmation (AID 2044); type: functional, cell-based;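 further: intracellular parasites grown in NIH/3T3 mouse fibroblasts as host cells; luminescent beta-galactosidase reporter signal from transgenic T. cruzi replicating inside host cells; inhibitors lower the luminescence signal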
[7] = NIH3T3 cell viability loss – ATP luminescence, mouse fibroblasts, counter-screen, dose response (AID 2010); type: functional, cell-based;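 further: cells exposed to compound for about 90 hours before reading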
[8] = Luminescence Cell-Based Dose Response HTS to Identify Activators of Luciferase Translation or Activity in H4 […] Cells. [Related pubchem assays: 1829 (Project Summary), 1814 (Primary HTS)]; type: functional
[9] = viability inhibitors of stage V gametocytes – luminescence, dose response (AID 1117278); type: functional, cell-based;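 further: gametocytes exposed to compound for 24 hours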
H4 = experiment: Luminescence Cell-Based Dose Response HTS to Identify Activators of 5'UTR Stem-Loop Driven Prion Protein mRNA Translation in H4 Neuroglioblastoma Cells. [Related pubchem assays: 1829 (Project Summary), 1814 (Primary HTS)]; type: functional; conditions: Homo sapiens
[10] = Luminescence Cell-Based Dose Confirmation HTS to Identify Activators of 5'UTR Stem-Loop Driven Alpha-Synuclein mRNA Translation in H4 Neuroglioblastoma Cells. [Related pubchem assays: 1829 (Project Summary), 1814 (Primary HTS)]; type: functional
[11] = viability loss in human Jurkat cells – cell-based, luminescence, cytotoxicity control for P. falciparum gametocyte viability project, dose response (AID 1117277); type: functional;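 further: potency reflects loss of cellular ATP meaning fewer viable cells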
[12] = blockade of melanocortin 4 receptor signaling – cell-based, plate reader, cherry pick, counter-screen for LGR2 antagonist project, dose response (AID 743444); type: functional;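 further: transfected HEK 293 cells stimulated with alpha-MSH peptide; potency of inhibitors of the alpha-MSH evoked signal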
[13] = blockers of bursicon-stimulated LGR2 cAMP reporter – cell-based, HEK293, CRE-luciferase reporter, cherry pick, set 2, dose response (AID 743343); type: functional;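 further: transfected cells were stimulated with diluted bursicon conditioned medium after compound addition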
[14] = A549 cell cytotoxicity, dose response, cytotoxicity control, plate reader, cherry-pick, antagonist series (AID 743412); type: functional, cell-based
[15] = toxicity toward HepG2 liver cells – cell-based, plate reader, cherry-pick, antagonist series, cytotoxicity control, dose response (AID 743416); type: functional
[16] = Dd2 malaria parasite growth inhibition potency – SYBR Green, dry powder samples, dose response (AID 1159566); type: functional, cell-based;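 further: potency for growth inhibition with lower SYBR green DNA signal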
[17] = P. falciparum Dd2 growth inhibitors, dose response, SYBR Green, cherry-picked samples (AID 1159567); type: functional, cell-based
[18] = growth inhibition of yeast DHODH-expressing 3D7 parasites – SYBR Green, dry powder samples, dose response (AID 1159570); type: functional, cell-based;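 further: parasite growth measured after 72 hours of compound exposure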
[19] = growth inhibition of PfATP4-mutant resistant parasites – NITD609-resistant line, SYBR Green, dry powder, dose response (AID 1159571); type: functional, cell-based;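 further: parasites synchronized at ring stage by sorbitol before testing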
[20] = NIH-3T3 fibroblast cytotoxicity, dose response, cytotoxicity control, cell-based, fluorescence, Alamar Blue, secondary assay (AID 2327); type: functional;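 further: NIH-3T3 mouse fibroblasts cultured with fluconazole at 8 µg/mL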
HeLa = experiment: ATP-based viability loss in HeLa cells – cell-based, CellTiter-Glo luminescence, cherry-pick samples, cytotoxicity control for MITF activator project, dose response (AID 540259); type: functional; conditions: Homo sapiens
[21] = fluconazole-exposed Candida albicans growth modulators – fluorescence, retest, confirmation (AID 2467); type: functional, cell-based
Protein skinhead-1 = molecular target: T3, Protein skinhead-1 (Caenorhabditis elegans, UniProt P34707); type: functional
T3 sequence (P34707 whole entry): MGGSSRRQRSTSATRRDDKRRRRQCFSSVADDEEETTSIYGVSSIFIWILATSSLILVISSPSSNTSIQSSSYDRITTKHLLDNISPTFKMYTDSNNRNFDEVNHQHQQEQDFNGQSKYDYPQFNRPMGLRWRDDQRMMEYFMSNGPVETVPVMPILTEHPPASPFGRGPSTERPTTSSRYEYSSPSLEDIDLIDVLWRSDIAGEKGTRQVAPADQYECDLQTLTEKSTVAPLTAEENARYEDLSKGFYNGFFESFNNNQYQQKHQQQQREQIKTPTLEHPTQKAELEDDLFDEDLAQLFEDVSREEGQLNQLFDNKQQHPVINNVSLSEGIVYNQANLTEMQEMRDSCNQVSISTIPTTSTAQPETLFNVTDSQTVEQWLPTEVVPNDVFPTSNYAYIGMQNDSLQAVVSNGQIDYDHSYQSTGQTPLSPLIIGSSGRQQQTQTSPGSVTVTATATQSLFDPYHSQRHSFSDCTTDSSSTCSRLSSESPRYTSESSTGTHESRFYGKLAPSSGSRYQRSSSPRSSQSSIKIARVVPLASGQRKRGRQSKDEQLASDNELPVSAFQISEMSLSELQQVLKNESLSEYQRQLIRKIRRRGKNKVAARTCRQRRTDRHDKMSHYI

[22] = molecular target: Induced myeloid leukemia cell differentiation protein Mcl-1 (Homo sapiens, UniProt Q07820); type: functional
Sequence of Induced myeloid leukemia cell differentiation protein Mcl-1 (Q07820 whole entry): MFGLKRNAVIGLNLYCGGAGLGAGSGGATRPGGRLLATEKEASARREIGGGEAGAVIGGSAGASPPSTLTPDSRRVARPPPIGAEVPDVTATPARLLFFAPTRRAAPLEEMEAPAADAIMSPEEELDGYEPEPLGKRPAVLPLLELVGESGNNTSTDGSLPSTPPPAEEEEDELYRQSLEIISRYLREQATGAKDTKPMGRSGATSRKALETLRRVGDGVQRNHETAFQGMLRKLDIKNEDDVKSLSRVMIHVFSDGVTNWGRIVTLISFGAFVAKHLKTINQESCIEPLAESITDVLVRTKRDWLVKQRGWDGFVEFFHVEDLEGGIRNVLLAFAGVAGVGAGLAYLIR

Prothrombin = Prothrombin (Homo sapiens, UniProt P00734); experiment: Thrombin 1536 HTS Dose Response Confirmation. [Related pubchem assays: 1046 (Thrombin 1536 HTS; hits were confirmed in this assay)]; type: functional
[23] = molecular target: T4, Carboxy-terminal domain RNA polymerase II polypeptide A small phosphatase 1 (Homo sapiens, UniProt Q9GZU7); experiment: CTDSP1 inhibitors, concentration-response, biochemical, absorbance readout, ultra-high-throughput screen actives (AID 540297); type: functional
T4 sequence (Q9GZU7 whole entry): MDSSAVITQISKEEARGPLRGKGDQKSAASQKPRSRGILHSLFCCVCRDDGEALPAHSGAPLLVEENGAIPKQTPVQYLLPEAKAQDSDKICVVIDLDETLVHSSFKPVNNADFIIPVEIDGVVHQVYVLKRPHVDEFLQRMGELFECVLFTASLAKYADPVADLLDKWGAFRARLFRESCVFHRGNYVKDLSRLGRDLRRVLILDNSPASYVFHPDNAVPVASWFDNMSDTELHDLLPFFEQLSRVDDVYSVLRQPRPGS

[24] = HIV-1 AD8 envelope cell-cell fusion blockers – cherry-pick, dose response (AID 652062); type: functional, cell-based;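 further: luciferase signal from cell-cell fusion driven by HIV-1 clade B AD8 Env; potency is for inhibitors of fusion seen as a drop in luminescence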
[25] = blockers of HIV-1 envelope-mediated cell-cell fusion – cherry-pick, dose response (AID 652057); type: functional, cell-based

c1cncc(-c2nnc(-c3cccnc3)nn2)c1
EC50 [1]: 9.23 µM (active)
IC50 [2]: > 66 µM (inactive)
IC50 [3]: > 66 µM (inactive)
EC50 [4]: 9.6 µM (active)

CCc1c(C)sc(NC(=O)c2cc(C3CC3)on2)c1C#N
IC50 [2]: > 66 µM (inactive)
IC50 [3]: > 66 µM (inactive)

COCC(C)n1c(C)cc(C(=O)COC(=O)c2ccc3c(c2)NC(=O)CS3)c1C (centres undefined)
IC50 [2]: > 66 µM (inactive)
IC50 [3]: > 66 µM (inactive)

Oc1ccc(CNc2ccc(F)cc2)c2cccnc12
IC50 [5]: 31 µM (active)
EC50 [6]: 5.56 µM (active)
EC50 [7]: > 60 µM (not active)

Cc1cccn2cc(-c3ccc4c(c3)NC(=O)CO4)nc12
EC50 [8]: 34.6 µM (active)
IC50 [9]: > 109 µM (inactive)
EC50 (H4): 7 µM (active)
EC50 [10]: 7.24 µM (active)
IC50 [11]: > 83.3 µM (inactive)

O=C(O)c1cccc(NC(=S)NC(=O)c2cccc(OCc3ccccc3)c2)c1
IC50 [2]: > 66 µM (inactive)
IC50 [3]: > 66 µM (inactive)

CC(=O)Nc1c(Nc2ccccc2)c2ccccc2oc1=O
IC50 [2]: > 66 µM (inactive)
IC50 [3]: > 66 µM (inactive)

O=C(CCc1nnc(CCCCc2ccccc2)o1)N1CCCC(O)C1 (centres undefined)
AC50 [12]: 3.46 µM (active)
AC50 [13]: 3.63 µM (active)
AC50 [14]: 0.513 µM (active)
AC50 [15]: > 52 µM (inactive)

COc1ccc2c3c([nH]c2c1)[C@H](CO)NCC31CCN(C(=O)Nc2ccc3c(c2)OCO3)CC1
AC50 [16]: 0.49 µM (active)
AC50 [17]: 0.914 µM (active)
AC50 [18]: 1.41 µM (active)
AC50 [19]: 0.949 µM (active)

Cc1ccc(Nc2nc(Cl)nc(NC(C)(C)C)n2)cc1
EC50 [20]: > 160 µM (inactive)
AC50 (HeLa): 159 µM (active)
EC50 [21]: 1.98 µM (active)

C(=C\c1nnc(-c2cccs2)o1)/c1ccccc1
IC50 (Protein skinhead-1): 11.9 µM (active)
AC50 (HeLa): 50.6 µM (active)

O=C1/C(=C/c2ccccn2)SC(=S)N1c1ccc(O)cc1
IC50 [22]: 5.85 µM (active)

C[C@H]1CN([C@@H](C)CO)C(=O)c2cc(NC(=O)Nc3ccccc3)ccc2O[C@H]1CN(C)Cc1ccc(-c2ccccc2)cc1
AC50 [12]: 39.4 µM (active)
AC50 [14]: 24.2 µM (active)
AC50 [15]: > 52 µM (inactive)

O=C1OC(c2ccccc2)C2(CCCC2)C(=O)C12CCCC2 (centres undefined)
IC50 [9]: > 109 µM (inactive)
IC50 [11]: > 83.3 µM (inactive)

COCC(=O)n1nc(-c2ccccc2)nc1NCc1ccc(F)cc1
IC50 (Prothrombin): 0.103 µM (active)

Cc1cc(N2CCN(c3ccccc3)CC2)nc(-c2ccccc2)n1
IC50 (Prothrombin): > 50 µM (not active)

C/N=C(/c1ccco1)n1c(=S)nc(-c2ccco2)n(C)c1=S
IC50 [5]: > 50 µM (not active)

O=C1C2C3C=CC(C2C(=O)N1c1cccc(O)c1)C1C2C(=O)N(c4cccc(O)c4)C(=O)C2C31 (centres undefined)
IC50 [22]: 9.49 µM (not active)

COc1ccc(OC)c(C2=NOC(C(=O)Nc3cc(C)on3)C2)c1 (centres undefined)
IC50 [9]: > 109 µM (inactive)
IC50 [11]: > 83.4 µM (inactive)

Cc1c(O)ccc(/C=N/Nc2nc(-c3cccnc3)nc3ccccc23)c1O
IC50 [22]: 6.03 µM (active)

CCC(Oc1ccccc1)C(=O)NCc1ccc(S(N)(=O)=O)cc1 (centres undefined)
IC50 [9]: > 109 µM (inactive)
IC50 [11]: > 83.3 µM (inactive)

Nc1cc(Nc2ccccc2)c2nonc2c1[N+](=O)[O-]
IC50 [2]: > 66 µM (inactive)
IC50 [3]: > 66 µM (inactive)

CCc1nnc(NC(=O)c2cc(-c3ccco3)nc3ccccc23)s1
IC50 [23]: 4.01 µM (active)
IC50 [22]: 3.18 µM (active)

Cc1ccc(-c2ccc3c(c2)O[C@H](CN(C)Cc2ccncc2)[C@@H](C)CN([C@@H](C)CO)S3(=O)=O)cc1
AC50 [24]: 26.5 µM (active)
AC50 [25]: 12.8 µM (active)

CCOc1cc(S(=O)(=O)N2CCCCC2)ccc1Cl
IC50 (Prothrombin): > 50 µM (not active)

Cc1cccc(NC(=O)c2cc3n(n2)C(C(F)(F)F)CC(C2CC2)N3)c1C (centres undefined)
IC50 [9]: > 109 µM (inactive)
IC50 [11]: > 83.3 µM (inactive)

N#C[C@@H]1[C@H](c2ccc(C#Cc3cccc(F)c3)cc2)[C@@H](CO)N1C(=O)C1CC1
AC50 [13]: 61.3 µM (active)
AC50 [14]: 24.4 µM (active)
AC50 [15]: 36.7 µM (active)

CCN(Cc1ccncc1)Cc1c(O)ccc2ccccc12
IC50 [5]: > 50 µM (not active)

CCOC(=O)N1CCN(C(=O)c2ccccc2N(C)S(C)(=O)=O)CC1
IC50 (Prothrombin): > 50 µM (not active)

CCN(CC)Cc1ccccc1Sc1ccccc1
IC50 (Prothrombin): > 50 µM (not active)

CC(C)c1ccc(-c2c(C#N)c(N)nc(SCC(=O)N3CCCCCC3)c2C#N)cc1
IC50 (Prothrombin): > 50 µM (not active)
